Data published in patent US20110306922A1, “LIGHT-EMITTING DEVICES FOR PHOTOTHERAPY” (priority 2010, published 2011).

Legend:
[1] = test system: CHO-K1 (Chinese Hamster Ovarian Cancer, ATCC, CRL-2243) cell line
[2] = test system: CHO-K1 (Chinese Hamster Ovarian Cancer, ATCC, CRL-2243) cell line; experiment: cells; conditions: Cricetulus griseus, CHO-K1, light or radiation study, read-out: cells destroyed (cell viability, light dosimetry)
[3] = test system: age-related macular degeneration; experiment: Intravenous verteporphin plus red OLED illumination of the retina, age-related macular degeneration; type: in vivo, person; conditions: about 6 mg/m^2 i.v.; about 20 mW/cm^2 for about 42 minutes, about 50 J/cm
Experimental: (§1) Verteporphin is intravenously injected, over a period of about 10 minutes at a rate of about 3 mL/min, to a person suffering from age-related macular degeneration. The verteporphin (7.5 mL of 2 mg/mL reconstituted solution, available as Visudyne® from Novartis) is diluted with 5% dextrose to a volume of 30 mL using a sufficient quantity of the reconstituted verteporphin so that the total dose injected is about 6 mg/m^2 of body surface.
The treatment is repeated as needed.

pathological myopia = experiment: Intravenous verteporphin plus red OLED illumination of the retina, pathological myopia; type: in vivo, person; conditions: about 6 mg/m^2 i.v.; about 20 mW/cm^2 for about 42 minutes, about 50 J/cm2
Experimental: as §1, with “minute” for “minutes”, “pathological myopia.” for “age-related macular degeneration.”
After treatment, the patient's vision is anticipated to be stabilized. The treatment is repeated as needed.

[4] = test system: presumed ocular histoplasmosis; set-up: species or system person; conditions: in vivo, iv

Compound | generation of PpIX (fluorescence emission at 635 nm) ([1]; ALA 0.5 mM, 1 mM, 2 mM, incubated about 16 hrs at 37° C.) | optical microscope images of the cells: healthy leafy type cells transform to droplet type ([1]; after 25 J/cm^2 red light (630 nm) irradiation from OLED) | cytotoxicity at 1000 µM [2] | patient's vision [3] | patient's vision (pathological myopia) | patient's vision [4]
NCC(=O)CCC(=O)O [ALA, 5-aminolevulinic acid] | confirmed | significant cell death | ~90% |  |  | 
C=Cc1c(C)c2cc3nc(cc4[nH]c(cc5nc(cc1[nH]2)C(C)=C5CCC(=O)O)c(CCC(=O)OC)c4C)[C@@]1(C)C3=CC=C(C(=O)OC)[C@H]1C(=O)OC [Verteporphin] |  |  |  | stabilized | stabilized | stabilized
